Test results reported in patent publication US20180163177A1, “SERUM-FREE CULTURE MEDIUM AND METHOD FOR EXPANDING HEMATOPOIETIC STEM CELLS” (HealthBanks Biotech Co. Ltd., priority 2016, published 2018).

system: CD34+ HSC; experiment: HSC expansion without feeder layer, in SF-UCM or concentrated SF-UCM with supplements, 12-day culture; format: cell-based; settings: day 12; no feeder layer; SCGM with 6 cytokines and hydrocortisone
Excerpt: To test potential replacement for the feeder layers, we have tested a serum-free umbilical cord mesenchymal stem cell conditioned medium (SF-UCM) from UC-MSC. The serum-free umbilical cord mesenchymal stem cell conditioned medium is for example produced by the method described above, comprising the steps of: (a) culturing an umbilical cord mesenchymal stem cell in a serum-free cell culture medium (e.g. serum-free SCGM), and (b) isolating the conditioned cell culture medium.
In FIG. 3A and FIG. 3B, the positive control (PC) group is in IMDM as described above. The PC & S1 groups shown in FIG. 3A and 3B are grown as follows: At day 0, CD34+ HSC are thawed and co-cultured with UC-MSC feeder for 12 days with a cell density of 2.5×10^4 cells/ml, using 5% CS (cord serum)/IMDM medium containing the 6 cytokines and hydrocortisone for PC group or using SCGM containing 6 cytokines, hydrocortisone and 4 supplements for S1 group.
The S3-2 group was grown as follows: At day 0, CD34+ HSC are thawed and cultured in a culture medium mixture of 50% (v/v) SF-UCM and 50% (v/v) fresh SCGM containing 6 cytokines, hydrocortisone and 4 supplements with a cell density of 2.5×10^4 cells/ml for 12 days. The 6 cytokines, hydrocortisone and 4 supplements used herein are the same as described in example 2.
During 12-day culture, 50% culture medium is replenished as well as newly prepared UC-MSC feeder every 4 days, and CD34+ cells are maintained at a cell density of 2.5-5×10^4 cells/ml. At day 12, cumulative total cell expansion folds and CD34+ expansion folds are calculated.
The following experiment is performed to evaluate the effect of replacing feeder layers with SF-UCM or concentrated SF-UCM. The SF-UCM obtained in Example 3 was further concentrated with a 5-10 kDa cut-off membrane (preferably a 5 kDa cut-off membrane) to obtain 10 times concentrated (in volume) conditioned medium. The concentrated conditioned medium was filtered with a 0.22 μm filter, and the filtrate is collected to obtain the desired con. SF-UCM (abbreviated as “c-SF-UCM”). The results of replacing the feeder layers with SF-UCM or con.
In FIG. 4A and 4B, the PC, Sl, and S3-2 groups are the same as described in Example 3. The S3-3 group is as follows: At day 0, CD34+ HSC are thawed and cultured in a culture medium mixture of 5% (v/v) concentrated SF-UCM and 95% (v/v) SCGM containing 6 cytokines, 4 supplements, and hydrocortisone with a cell density of 2.5×10^4 cells/ml for 12 days. The 6 cytokines, hydrocortisone and 4 supplements used herein are the same as described in example 2. The above medium mixture is 50% replenished every 4 days and the cells (including CD34+ cells) are maintained at a cell density of 2.5-10×10^4 cells/ml. At day 12, cumulative total cell expansion folds and CD34+ (ISHAGE) expansion folds are calculated.
At day 0, CD34+ HSC are thawed and cultured in a corresponding culture medium in the following groups: (1) SCGM+SP+UCM group: a culture medium mixture of 5% (v/v) c-SF-UCM and 95% (v/v) SCGM containing 6 cytokines, 4 supplements and hydrocortisone; (2) SCGM+SP group: SCGM containing 6 cytokines, 4 supplements and hydrocortisone; (3) SCGM+UCM group: a culture medium mixture of 5% (v/v) c-SF-UCM and 95% (v/v) SCGM containing 6 cytokines and hydrocortisone; and (4) SCGM group: SCGM containing 6 cytokines and hydrocortisone. The 6 cytokines, hydrocortisone and 4 supplements used herein are the same as described in example 2.
The cells are cultured at a cell density of 2.5×10^4 cells/ml. The above medium mixture is 50-80% replenished every 4 days and the cells (including CD34+ cells) are maintained at a cell density of 2.5-10×10^4 cells/ml. At day 12, cumulative total cell expansion folds and CD34+ (ISHAGE) expansion folds are calculated.
In this experiment, the PC group and S3-3 group is the same as the previous examples. The culture medium is 50% replenished every 4 days, and cells are maintained at a cell density of 2.5-5×10^4 cells/ml. […]

Molecule | CD34+ (ISHAGE) expansion folds | cumulative total cell expansion folds
O=C1O[C@H]([C@@H](O)CO)C(O)=C1O [vitamin C, L-ascorbic acid] | alone can support the expansion | alone can support the expansion
Cc1c(C)c2c(c(C)c1O)CC[C@@](C)(CCC[C@H](C)CCC[C@H](C)CCCC(C)C)O2 [vitamin E, α-tocopherol] | alone is also sufficient in supporting the expansion | alone is also sufficient in supporting the expansion
transferrin (TF): transferrin, supplement used at 30 μg/ml | does not further increase the enhancement to any appreciable extent | does not further increase the enhancement to any appreciable extent
